Source: PMC8101546 (Biochimica et biophysica acta. Molecular cell research, 2018)

Tests used:
U2OS cells = assay: Ca2+ mobilization after microinjection into U2OS cells expressing GCaMP6M; type: cell-based, human; details: GCaMP6M fluorescence
23 kDa protein = type: binding, human; details: U2OS cell extracts; for IC50: read-out: IC50 for displacement of photolabeling of the 23 kDa protein, [32P]-5N3-8-ethynyl-NAADP (0.23 nM) photoprobe, densitometry
35 kDa protein = type: binding, human; details: U2OS cell extracts; for IC50: read-out: IC50 for displacement of photolabeling of the 35 kDa band, [32P]-5N3-8-ethynyl-NAADP (0.23 nM) photoprobe, densitometry
NAADP receptor [1] = assay: Ca2+ release assay in sea urchin egg homogenate; type: biochemical, Strongylocentrotus purpuratus; details: read-out: Ca2+ mobilizing EC50, fluo-3, n = 3, ± STDEV
NAADP receptor [2] = assay: Self-desensitization to subsequent 1 μM NAADP in sea urchin egg homogenate; type: biochemical, Strongylocentrotus purpuratus; details: read-out: IC50 for desensitization to NAADP-evoked Ca2+ release, subsequent addition of 1 μM NAADP, n = 3, ± STDEV

| displacement of 23 kDa photolabeling, more penetrant compared to NADP (23 kDa protein; ratio of IC50 values NADP/NAADP) | EC50 (NAADP receptor [1]) | SMILES | peak F/F0 (Ca2+ response) (U2OS cells; 100 nM in pipette, n = 3 injections) | IC50 (23 kDa protein) | lower affinity of the 35 kDa band in contrast to the 23 kDa band (35 kDa protein; ratio of IC50 values 35 kDa/23 kDa) | IC50 (35 kDa protein) | peak F/F0 (Ca2+ response) (U2OS cells; 1 μM in pipette, n = 3) | peak F/F0 (Ca2+ response) (U2OS cells; 10 μM in pipette, n = 3) | IC50 (NAADP receptor [2]) |
| --- | --- | --- | --- | --- | --- | --- | --- | --- | --- |
| ~ 9 fold | – | Nc1ncnc2c1ncn2[C@@H]1O[C@H](COP(=O)(O)OP(=O)(O)OCC2OC([n+]3cccc(C(=O)[O-])c3)C(O)C2O)[C@@H](O)[C@H]1OP(=O)(O)O (stereo in doubt) [NAADP, nicotinic acid adenine dinucleotide 2′-phosphate] | 4.01 ± 1.2 | 27 ± 1.3 nM | ~ 8 fold | 213 ± 19 nM | – | – | – |
| – | – | NC(=O)c1ccc[n+]([C@@H]2O[C@H](COP(=O)([O-])OP(=O)(O)OC[C@H]3O[C@@H](n4cnc5c(N)ncnc54)[C@H](OP(=O)(O)O)[C@@H]3O)[C@@H](O)[C@H]2O)c1 [NADP, nicotinamide adenine dinucleotide 2′-phosphate] | – | 246 ± 13 nM | – | 940 ± 204 nM | – | – | – |
| – | 2860 ± 400 nM | C#Cc1nc2c(N)ncnc2n1C1OC(COP(=O)(O)OP(=O)(O)OC[C@H]2O[C@@H]([n+]3cc(N=[N+]=[N-])cc(C(=O)[O-])c3)[C@H](O)[C@@H]2O)C(O)C1OP(=O)(O)O (some centres unmarked) [5N3-8-ethynyl-NAADP, 5-Azido-8-ethynyl-NAADP] | – | – | – | – | 2.14 ± 0.37 | 2.8 ± 0.33 | 99 ± 7.7 nM |
